Common to all, as to assay type: cell-based
For one assay, the target named is T1, Bcl-xL (Homo sapiens, UniProt Q07817).
T1 construct: Measured levels of Bcl-xL protein of HCT116 cells treated with the tested compounds; host or cells: HCT116
Description: HCT116 Bcl-xL degradation, capillary-based immunoassay (WES). As to conditions: HCT116, 24 h, 9-point serial dilution. The gist of the method:
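HCT116 cells treated 24 h with compound at 10/100 nM and/or 9-point dilution (quadruplicates), then lysed. Bcl-xL measured by capillary WES immunoassay, normalized to cofilin and expressed as % of untreated cells. DC50 from four-parameter curve fit.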

Assay [1] has as its system EBC-1 lung cancer cell line. Nature of the assay: EBC-1 cell proliferation, CellTiter-Glo assay. The settings on record: Homo sapiens, 120 h; Ebc-1 cell viability, CTG assay, 5 days of treatment; read-out: CTG 5 day Ebc1 GI50. Put shortly: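 EBC-1 cells seeded at 1000 per well overnight, then exposed to 10-point dilutions (0.508 nM–10 μM final) for 5 days at 37 °C, in triplicate. ATP luminescence by CellTiter-Glo, normalised to untreated wells; GI50 from four-parameter logistic fit, runs valid only with at least one doubling.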

In another assay the target is T2, HiBiT-tagged BCL-xL (Homo sapiens, UniProt Q07817).
T2 construct: expressed in transfected cells; host or cells: NCI-H1650 (ATCC No. CRL-5883), engineered HiBiT cell line
T2 sequence (Q07817 whole entry): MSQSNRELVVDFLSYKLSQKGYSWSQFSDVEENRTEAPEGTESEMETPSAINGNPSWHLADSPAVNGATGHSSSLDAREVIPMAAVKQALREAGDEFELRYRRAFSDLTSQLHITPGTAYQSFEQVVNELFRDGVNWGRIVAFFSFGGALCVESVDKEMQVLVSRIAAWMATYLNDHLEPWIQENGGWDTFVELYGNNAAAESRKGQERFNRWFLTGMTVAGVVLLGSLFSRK
Description: NCI-H1650 BCL-xL protein levels, Nano-Glo HiBiT Lytic Detection. As to conditions: NCI-H1650 expressing HiBiT-tagged BCL-xL, overnight incubation, read-out: Bcl-xl HIBIT NCIH1650 DC50. The gist of the method: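 NCI-H1650 cells expressing HiBiT-tagged BCL-xL (5000/well) were treated overnight at 37° C with 10 concentrations, final 0.508 nM-10 μM, in triplicate. Remaining BCL-xL measured by Nano-Glo HiBiT lytic luminescence, normalized to untreated cells; 50% values by four-parameter logistic fit.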
(In general: The HiBiT peptide binds its large partner to form an active luciferase.)

A further assay deals with MOLT-4 cells. Description: MOLT-4 cell viability, CTG assay. The settings on record: Homo sapiens, MOLT-4, 48 h. Put shortly: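 Cells grown in RPMI 1640 with 10% FBS at 37° C, 5% CO2, then exposed to compounds for 48 h (11-point 5-fold dilution, triplicates). ATP measured by CellTiter-Glo luminescence; IC50 from four-parameter fit versus control, mean of ≥2 independent experiments.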

The GI50 is the concentration at which growth is held to half of that of the control. As a reminder, the IC50 is the concentration that gives 50% inhibition.

T1 sequence (Q07817 whole entry): as above

In the case of `Cc1cc(N(CCCCN(C)C(=O)CCCCCCCCCCCCC(=O)N[C@H](C(=O)N2C[C@H](O)C[C@H]2C(=O)N[C@@H](C)c2ccc(-c3scnc3C)cc2)C(C)(C)C)c2ccc(-c3cnn(CC45CC6(C)CC(C)(C4)CC(OCCN(C)C)(C6)C5)c3C)c(C(=O)O)n2)nnc1Nc1nc2ccccc2s1` [Example 116, 6-[[6-(1,3-benzothiazol-2-ylamino)-5-methyl-pyridazin-3-yl]-[4-[[14-[[(1S)-1-[(2S,4R)-4-hydroxy-2-[[(1S)-1-[4-(4-methylthiazol-5-yl)phenyl]ethyl]carbamoyl]pyrrolidine-1-carbonyl]-2,2-dimethyl-propyl]amino]-14-oxo-tetradecanoyl]-methyl-amino]butyl]amino]-3-[1-[[3-[2-(dimethylamino)ethoxy]-5,7-dimethyl-1-adamantyl]methyl]-5-methyl-pyrazol-4-yl]pyridine-2-carboxylic acid], the DC50 at Bcl-xL was determined as 0.0036 µM; on HiBiT-tagged BCL-xL, 0.001 µM. Moreover, the 50% growth inhibitory concentration (GI50) in assay [1] stood at 0.045 µM. For the same molecule, inhibition in the assay on MOLT-4 cells was half-maximal at 0.0161 µM (IC50).
Turning to `Cc1cc(N(CCCCN(C)C(=O)CCCCCCCCCOc2cccc3c2C(=O)N(C2CCC(=O)NC2=O)C3=O)c2ccc(-c3cnn(CC45CC6(C)CC(C)(C4)CC(OCCN(C)C)(C6)C5)c3C)c(C(=O)O)n2)nnc1Nc1nc2ccccc2s1` (centres unmarked) [Example 95, 6-[[6-(1,3-benzothiazol-2-ylamino)-5-methyl-pyridazin-3-yl]-[4-[10-[2-(2,6-dioxo-3-piperidyl)-1,3-dioxo-isoindolin-4-yl]oxydecanoyl-methyl-amino]butyl]amino]-3-[1-[[3-[2-(dimethylamino)ethoxy]-5,7-dimethyl-1-adamantyl]methyl]-5-methyl-pyrazol-4-yl]pyridine-2-carboxylic acid], the DC50 at Bcl-xL is 0.00285 µM; at HiBiT-tagged BCL-xL, above 1.67 µM. In assay [1], the GI50 is 2.67 µM. The molecule further showed a 50% inhibitory concentration (IC50) with MOLT-4 cells of 0.00577 µM.
`Cc1ncsc1-c1ccc(CNC(=O)[C@@H]2C[C@@H](O)CN2C(=O)[C@@H](NC(=O)C2(F)CC2)C(C)(C)C)c(OCCCCCCCCCN(C)CCOC23CC4(C)CC(C)(CC(Cn5ncc(-c6ccc(N7CCCc8c7nnc(Nc7nc9ccccc9s7)c8C)nc6C(=O)O)c5C)(C4)C2)C3)c1` [Example 72, 6-[3-(1,3-benzothiazol-2-ylamino)-4-methyl-6,7-dihydro-5H-pyrido[2,3-c]pyridazin-8-yl]-3-[1-[[3-[2-[9-[2-[[[(2S,4R)-1-[(2S)-2-[(1-fluorocyclopropanecarbonyl)amino]-3,3-dimethyl-butanoyl]-4-hydroxy-pyrrolidine-2-carbonyl]amino]methyl]-5-(4-methylthiazol-5-yl)phenoxy]nonyl-methyl-amino]ethoxy]-5,7-dimethyl-1-adamantyl]methyl]-5-methyl-pyrazol-4-yl]pyridine-2-carboxylic acid]: the DC50 at Bcl-xL is 0.0133 µM; at HiBiT-tagged BCL-xL, above 1.67 µM. Further, the GI50 in assay [1] is 0.179 µM. In the assay on MOLT-4 cells, it took 0.0167 µM to reach half-maximal inhibition (IC50).
Take `Cc1cc(N(CCCCN(C)C(=O)CCCCCCCCCSC(C)(C)[C@H](NC(=O)C2(F)CC2)C(=O)N2C[C@H](O)C[C@H]2C(=O)NCc2ccc(-c3scnc3C)cc2)c2ccc(-c3cnn(CC45CC6(C)CC(C)(C4)CC(OCCN(C)C)(C6)C5)c3C)c(C(=O)O)n2)nnc1Nc1nc2ccccc2s1` [Example 126, 6-[[6-(1,3-benzothiazol-2-ylamino)-5-methyl-pyridazin-3-yl]-[4-[10-[(2R)-2-[(1-fluorocyclopropanecarbonyl)amino]-3-[(2S,4R)-4-hydroxy-2-[[4-(4-methylthiazol-5-yl)phenyl]methylcarbamoyl]pyrrolidin-1-yl]-1,1-dimethyl-3-oxo-propyl]sulfanyldecanoyl-methyl-amino]butyl]amino]-3-[1-[[3-[2-(dimethylamino)ethoxy]-5,7-dimethyl-1-adamantyl]methyl]-5-methyl-pyrazol-4-yl]pyridine-2-carboxylic acid]: the DC50 at Bcl-xL was above 0.316 µM; at HiBiT-tagged BCL-xL, above 1.67 µM. In assay [1], the GI50 was found to be 1.43 µM. Besides, the IC50 in the assay on MOLT-4 cells worked out at 0.24 µM.
Taken in the same sequence, the figures for `Cc1ncsc1-c1ccc([C@H](C)NC(=O)[C@@H]2C[C@@H](O)CN2C(=O)[C@@H](NC(=O)CCOCCOCCOCCOCCN(C)CCOC23CC4(C)CC(C)(CC(Cn5ncc(-c6ccc(N7CCCc8c7nnc(Nc7nc9ccccc9s7)c8C)nc6C(=O)O)c5C)(C4)C2)C3)C(C)(C)C)cc1` [Example 89, 6-[3-(1,3-benzothiazol-2-ylamino)-4-methyl-6,7-dihydro-5H-pyrido[2,3-c]pyridazin-8-yl]-3-[1-[[3-[2-[2-[2-[2-[2-[3-[[(1S)-1-[(2S,4R)-4-hydroxy-2-[[(1S)-1-[4-(4-methylthiazol-5-yl)phenyl]ethyl]carbamoyl]pyrrolidine-1-carbonyl]-2,2-dimethyl-propyl]amino]-3-oxo-propoxy]ethoxy]ethoxy]ethoxy]ethyl-methyl-amino]ethoxy]-5,7-dimethyl-1-adamantyl]methyl]-5-methyl-pyrazol-4-yl]pyridine-2-carboxylic acid] were above 0.316 µM, 0.013 µM, 0.435 µM and 0.0576 µM.
In the case of `Cc1ncsc1-c1ccc([C@H](C)NC(=O)[C@@H]2C[C@@H](O)CN2C(=O)[C@@H](NC(=O)COCCCCCCCCCN(C)CCOC23CC4(C)CC(C)(CC(Cn5ncc(-c6ccc(N7CCCc8c7nnc(Nc7nc9ccccc9s7)c8C)nc6C(=O)O)c5C)(C4)C2)C3)C(C)(C)C)cc1` [Example 109, 6-[3-(1,3-benzothiazol-2-ylamino)-4-methyl-6,7-dihydro-5H-pyrido[2,3-c]pyridazin-8-yl]-3-[1-[[3-[2-[9-[2-[[(1S)-1-[(2S,4R)-4-hydroxy-2-[[(1S)-1-[4-(4-methylthiazol-5-yl)phenyl]ethyl]carbamoyl]pyrrolidine-1-carbonyl]-2,2-dimethyl-propyl]amino]-2-oxo-ethoxy]nonyl-methyl-amino]ethoxy]-5,7-dimethyl-1-adamantyl]methyl]-5-methyl-pyrazol-4-yl]pyridine-2-carboxylic acid], the DC50 on Bcl-xL was determined as 0.000155 µM; on HiBiT-tagged BCL-xL, 0.001 µM. Moreover, the concentration for 50% growth inhibition (GI50) in assay [1] was determined as 0.098 µM. The same molecule returned an IC50 in the assay on MOLT-4 cells of 0.00784 µM.
Consider `Cc1ncsc1-c1ccc([C@H](C)NC(=O)[C@@H]2C[C@@H](O)CN2C(=O)[C@@H](NC(=O)CCCCCCCCCCCCCN(C)CCOC23CC4(C)CC(C)(CC(Cn5ncc(-c6ccc(N7CCCc8c7nnc(Nc7nc9ccccc9s7)c8C)nc6C(N)=O)c5C)(C4)C2)C3)C(C)(C)C)cc1` [Example 154, 6-[3-(1,3-benzothiazol-2-ylamino)-4-methyl-6,7-dihydro-5H-pyrido[2,3-c]pyridazin-8-yl]-3-[1-[[3-[2-[[14-[[(1S)-1-[(2S,4R)-4-hydroxy-2-[[(1S)-1-[4-(4-methylthiazol-5-yl)phenyl]ethyl]carbamoyl]pyrrolidine-1-carbonyl]-2,2-dimethyl-propyl]amino]-14-oxo-tetradecyl]-methyl-amino]ethoxy]-5,7-dimethyl-1-adamantyl]methyl]-5-methyl-pyrazol-4-yl]pyridine-2-carboxamide], for which the DC50 at Bcl-xL is 0.0103 µM; at HiBiT-tagged BCL-xL, above 1.67 µM. Besides, the GI50 in assay [1] stood at 0.222 µM. For the same molecule, the IC50 in the assay on MOLT-4 cells is 0.00659 µM.
For the molecule `Cc1ncsc1-c1ccc(CNC(=O)[C@@H]2C[C@@H](O)CN2C(=O)[C@@H](NC(=O)C2(F)CC2)C(C)(C)C)c(OCCCCCCCCCCCCCCCCN(C)CCOC23CC4(C)CC(C)(CC(Cn5ncc(-c6ccc(N7CCCc8c7nnc(Nc7nc9ccccc9s7)c8C)nc6C(=O)O)c5C)(C4)C2)C3)c1` [Example 77, 6-[3-(1,3-benzothiazol-2-ylamino)-4-methyl-6,7-dihydro-5H-pyrido[2,3-c]pyridazin-8-yl]-3-[1-[[3-[2-[16-[2-[[[(2S,4R)-1-[(2S)-2-[(1-fluorocyclopropanecarbonyl)amino]-3,3-dimethyl-butanoyl]-4-hydroxy-pyrrolidine-2-carbonyl]amino]methyl]-5-(4-methylthiazol-5-yl)phenoxy]hexadecyl-methyl-amino]ethoxy]-5,7-dimethyl-1-adamantyl]methyl]-5-methyl-pyrazol-4-yl]pyridine-2-carboxylic acid], the DC50 was above 0.316 µM on Bcl-xL and above 1.67 µM on HiBiT-tagged BCL-xL. For the same molecule, the GI50 in assay [1] was determined as 0.167 µM. This molecule came in with an IC50 in the assay on MOLT-4 cells of 0.00454 µM.

Values taken from patent publication US20240376094A2, “SELECTIVE BCL-XL PROTAC COMPOUNDS AND METHODS OF USE” (Les Laboratoires Servier, priority 2021, published 2024).
